Patent US20230079045A1 (priority 2019, published 2023)

Legend:
Assay type in all cases: cell-based, influenza virus
IFVA/Weiss/43 = assay: cytopathic effect (CPE) antiviral test in MDCK cells, IFVA/Weiss/43; details: unidentified influenza virus, MDCK, 120 h, read-out: EC50(IFVA/Weiss/43), MDCK cells, CPE method, CCK-8 cell viability, 5 days
IFVA/Mal/302/54 = assay: cytopathic effect (CPE) antiviral test in MDCK cells, IFVA/Mal/302/54; details: unidentified influenza virus, MDCK, 120 h, read-out: EC50(IFVA/Mal/302/54), MDCK cells, CPE method, CCK-8 cell viability, 5 days
IFV A/PR/8/34 = assay: cytopathic effect (CPE) antiviral test in MDCK cells, IFV A/PR/8/34; details: unidentified influenza virus, PR/8, MDCK, 120 h, read-out: EC50(IFV A/PR/8/34)

Structure (SMILES)	EC50 (IFVA/Weiss/43) [nM]	EC50 (IFVA/Mal/302/54) [nM]	EC50 (IFV A/PR/8/34) [nM]
O=C(Nc1ccc2oc(-c3ccnc(C(=O)N4CCN(C(c5ccccc5)c5nnn(C(F)F)n5)CC4)c3)nc2c1)[C@H]1C[C@@H]1F (mixture of isomers) [Compound 95, (1R,2S)—N-(2-(2-(4-((R/S)-(2-(difluoromethyl)-2H-tetrazol-5-yl)(phenyl)methyl)piperazine-1-carbonyl)pyridin-4-yl)benzo[d]oxazol-5-yl)-2-fluorocyclopropane-1-carboxamide]	17	10	–
CC(=O)Nc1ccc2oc(-c3ccnc(C(=O)N4CCN(C(c5ccccc5)c5nnn(C)n5)[C@H](C)C4)c3)nc2c1 (mixture of isomers) [Compound 16a, N-(2-(2-((3R)-3-methyl-4-((2-methyl-2H-tetrazol-5-yl)(phenyl)methyl)piperazine-1-carbonyl)pyridin-4-yl)benzo[d]oxazol-5-yl)acetamide]	7160	> 10000	–
CC(C)(F)C(=O)Nc1ccc2oc(-c3ccnc(C(=O)N4CCC(C(c5ccccc5)n5nnc(C(F)F)n5)CC4)c3)nc2c1 (racemic) [Compound 164, (R/S)—N-(2-(2-(4-((5-(difluoromethyl)-2H-tetrazol-2-yl)(phenyl)methyl)piperidine-1-carbonyl)pyridin-4-yl)benzo[d]oxazol-5-yl)-2-fluoro-2-methylpropanamide]	–	–	13
Cn1cc(-c2ccc3oc(-c4ccnc(C(=O)N5CCN(C(c6ccccc6)c6nnn(C(F)F)n6)CC5)c4)cc3c2)cn1 (racemic) [Compound 165, (R/S)-(4-((2-(difluoromethyl)-2H-tetrazol-5-yl)(phenyl)methyl)piperazin-1-yl)(4-(5-(1-methyl-1H-pyrazol-4-yl)benzofuran-2-yl)pyridin-2-yl)methanone]	–	–	10
Cn1cncc1-c1ccc2oc(-c3ccnc(C(=O)N4CCC(C(c5ccccc5)n5nnc(C(F)F)n5)CC4)c3)nc2c1 (racemic) [Compound 166, (R/S)-(4-((5-(difluoromethyl)-2H-tetrazol-2-yl)(phenyl)methyl)piperidin-1-yl)(4-(5-(1-methyl-1H-imidazol-5-yl)benzo[d]oxazol-2-yl)pyridin-2-yl)methanone]	–	–	6
Cc1nnn(C(c2ccccc2)C2CCN(C(=O)c3cc(-c4nc5cc(-c6cncn6C)ccc5o4)ccn3)CC2)n1 (racemic) [Compound 167, (R/S)-(4-(5-(1-methyl-1H-imidazol-5-yl)benzo[d]oxazol-2-yl)pyridin-2-yl)(4-((5-methyl-2H-tetrazol-2-yl)(phenyl)methyl)piperidin-1-yl)methanone]	–	–	5
O=C(c1cc(-c2nc3cc(-c4cn(C(F)F)cn4)ccc3o2)ccn1)N1CCN(C(c2ccccc2)c2nnn(C(F)F)n2)CC1 (racemic) [Compound 170, (R/S)-(4-(5-(1-(difluoromethyl)-1H-imidazol-4-yl)benzo[d]oxazol-2-yl)pyridin-2-yl)(4-((2-(difluoromethyl)-2H-tetrazol-5-yl)(phenyl)methyl)piperazin-1-yl)methanone]	–	–	7
O=C(c1cc(-c2nc3cc(-c4cncn4C(F)F)ccc3o2)ccn1)N1CCN(C(c2ccccc2)c2nnn(C(F)F)n2)CC1 (racemic) [Compound 171, (R/S)-(4-(5-(1-(difluoromethyl)-1H-imidazol-5-yl)benzo[d]oxazol-2-yl)pyridin-2-yl)(4-((2-(difluoromethyl)-2H-tetrazol-5-yl)(phenyl)methyl)piperazin-1-yl)methanone]	–	–	5
O=C(c1cc(-c2nc3cc(-c4cnoc4)ccc3o2)ccn1)N1CCN(C(c2ccccc2)c2nnn(C(F)F)n2)CC1 (racemic) [Compound 174, (R/S)-(4-((2-(difluoromethyl)-2H-tetrazol-5-yl)(phenyl)methyl)piperazin-1-yl)(4-(5-(isoxazol-4-yl)benzo[d]oxazol-2-yl)pyridin-2-yl)methanone]	–	–	15
Cc1nnn(C(c2ccccc2)C2CCN(C(=O)c3cc(-c4nc5cc(-c6ccn(C)n6)ccc5o4)ccn3)CC2)n1 (racemic) [Compound 183, (R/S)-(4-(5-(1-methyl-1H-pyrazol-3-yl)benzo[d]oxazol-2-yl)pyridin-2-yl)(4-((5-methyl-2H-tetrazol-2-yl)(phenyl)methyl)piperidin-1-yl)methanone]	–	–	18
Cc1nnn(C(c2ccccc2)C2CCN(C(=O)c3cc(-c4cc5cc(-c6cncn6C)ccc5o4)ccn3)CC2)n1 (racemic) [Compound 186, (R/S)-(4-(5-(1-methyl-1H-imidazol-5-yl)benzofuran-2-yl)pyridin-2-yl)(4-((5-methyl-2H-tetrazol-2-yl)(phenyl)methyl)piperidin-1-yl)methanone]	–	–	2
Cc1nnn(C(c2ccccc2)C2CCN(C(=O)c3cc(-c4nc5cc(-c6cnn(C)c6C)ccc5o4)ccn3)CC2)n1 (racemic) [Compound 187, (R/S)-(4-(5-(1,5-dimethyl-1H-pyrazol-4-yl)benzo[d]oxazol-2-yl)pyridin-2-yl)(4-((5-methyl-2H-tetrazol-2-yl)(phenyl)methyl)piperidin-1-yl)methanone]	–	–	6
Cc1cn(-c2ccc3oc(-c4ccnc(C(=O)N5CCC(C(c6ccccc6)n6nnc(C)n6)CC5)c4)nc3c2)cn1 (racemic) [Compound 189, (R/S)-(4-(5-(4-methyl-1H-imidazol-1-yl)benzo[d]oxazol-2-yl)pyridin-2-yl)(4-((5-methyl-2H-tetrazol-2-yl)(phenyl)methyl)piperidin-1-yl)methanone]	–	–	11
[2H]C([2H])([2H])c1nnn(C(c2ccccc2)C2CCN(C(=O)c3cc(-c4nc5cc(NC(=O)[C@@H]6C[C@@H]6F)ccc5o4)ccn3)CC2)n1 (mixture of isomers) [Compound 201, (1S,2S)-2-fluoro-N-(2-(2-(4-((R/S)-(5-(methyl-d3)-2H-tetrazol-2-yl)(phenyl)methyl)piperidine-1-carbonyl)pyridin-4-yl)benzo[d]oxazol-5-yl)cyclopropane-1-carboxamide]	–	–	3.6
O=C(c1cc(-c2nc3cc(-c4cncn4C(F)F)ccc3o2)ccn1)N1CCC(C(c2ccccc2)n2nnc(CO)n2)CC1 (racemic) [Compound 206, (R/S)-(4-(5-(1-(difluoromethyl)-1H-imidazol-5-yl)benzo[d]oxazol-2-yl)pyridin-2-yl)(4-((5-(hydroxymethyl)-2H-tetrazol-2-yl)(phenyl)methyl)piperidin-1-yl)methanone]	–	–	4.5
O=C(c1cc(-c2nc3cc(-c4cn(C(F)F)cn4)ccc3o2)ccn1)N1CCC(C(c2ccccc2)n2nnc(CO)n2)CC1 (racemic) [Compound 207, (R/S)-(4-(5-(1-(difluoromethyl)-1H-imidazol-4-yl)benzo[d]oxazol-2-yl)pyridin-2-yl)(4-((5-(hydroxymethyl)-2H-tetrazol-2-yl)(phenyl)methyl)piperidin-1-yl)methanone]	–	–	1.3
Cc1nnn(C(c2ccccc2)C2CCN(C(=O)c3cc(-c4nc5ccc(NC(=O)[C@@H]6C[C@@H]6F)cc5o4)ccn3)CC2)n1 (single isomer, unassigned) [Compound 134]	–	–	4
Cc1nnn(C(c2ccc(F)cc2)C2CCN(C(=O)c3cc(-c4nc5cc(NC(=O)[C@@H]6C[C@@H]6F)ccc5o4)ccn3)CC2)n1 (single isomer, unassigned) [Compound 202]	–	–	2.6
[2H]C([2H])([2H])C(C(=O)Nc1ccc2oc(-c3ccnc(C(=O)N4CCN([C@H](c5ccccc5)c5nnn(C(F)F)n5)CC4)c3)cc2c1)C([2H])([2H])[2H] [Compound 136, 3,3,3-trideuterio-N-[2-[2-[4-[(R)-[2-(difluoromethyl)tetrazol-5-yl]-phenyl-methyl]piperazine-1-carbonyl]-4-pyridyl]benzofuran-5-yl]-2-(trideuteriomethyl)propanamide]	–	–	8
Cc1nnn([C@@H](c2ccccc2)C2CCN(C(=O)c3cc(-c4cc5cc(NC(=O)[C@@H]6C[C@@H]6F)ccc5o4)ccn3)CC2)n1 [Compound 139, (1S,2S)-2-fluoro-N-(2-(2-(4-((R)-(5-methyl-2H-tetrazol-2-yl)(phenyl)methyl)piperidine-1-carbonyl)pyridin-4-yl)benzofuran-5-yl)cyclopropanecarboxamide]	–	–	4
[2H]C([2H])([2H])n1nnc(C(c2ccccc2)N2CCN(C(=O)c3cc(-c4nc5cc(NC(=O)[C@@H]6C[C@@H]6F)ccc5o4)ccn3)CC2)n1 (stereo partly drawn) [Compound 178, (1S,2S)-2-fluoro-N-(2-(2-(4-((R)-(2-Deuteratedmethyl-2H-tetrazol-5-yl)(phenyl)methyl)piperazine-1-carbonyl)pyridin-4-yl)benzo[d]oxazol-5-yl)cyclopropanecarboxamide]	–	–	7
Cc1nnn([C@@H](c2ccsc2)C2CCN(C(=O)c3cc(-c4nc5cc(NC(=O)[C@@H]6C[C@@H]6F)ccc5o4)ccn3)CC2)n1 [Compound 203, (1S,2S)-2-fluoro-N-(2-(2-(4-((R)-(5-methyl-2H-tetrazol-2-yl)(thiophen-3-yl)methyl)piperidine-1-carbonyl)pyridin-4-yl)benzo[d]oxazol-5-yl)cyclopropanecarboxamide]	–	–	19
[2H]c1c([2H])c([2H])c([C@@H](C2CCN(C(=O)c3cc(-c4nc5cc(NC(=O)[C@@H]6C[C@@H]6F)ccc5o4)ccn3)CC2)n2nnc(C)n2)c([2H])c1[2H] [Compound 205, (1S,2S)-2-fluoro-N-[2-[2-[4-[(R)-(5-methyltetrazol-2-yl)-(2,3,4,5,6-pentadeuteriophenyl)methyl]piperidine-1-carbonyl]-4-pyridyl]-1,3-benzoxazol-5-yl]cyclopropanecarboxamide]	–	–	5.5
O=C(c1cc(-c2nc3cc(-c4cn(C(F)F)cn4)ccc3o2)ccn1)N1CCC(C(c2ccccc2)n2nnc(CO)n2)CC1 (centres unmarked) [Compound 217, (4-(5-(1-(difluoromethyl)-1H-imidazol-4-yl)benzo[d]oxazol-2-yl)pyridin-2-yl)(4-((5-(hydroxymethyl)-2H-tetrazol-2-yl)(phenyl)methyl)piperidin-1-yl)methanone]	–	–	3.3
